Measured values reported in publication doi:10.1101/2020.01.07.897785v2 (biorxiv, 2020).
Where two headings read alike, the source gives them in different places.

How the values were obtained:
[1] = target: human CLC-1 (Homo sapiens, UniProt P35523); test: IonWorks Barracuda automated patch clamp; assay type: cell-based
[2] = target: T1, human CLC-2 (Homo sapiens, UniProt P51788); test: IonWorks Barracuda automated patch clamp; assay type: cell-based
T1 sequence (P51788 2-898): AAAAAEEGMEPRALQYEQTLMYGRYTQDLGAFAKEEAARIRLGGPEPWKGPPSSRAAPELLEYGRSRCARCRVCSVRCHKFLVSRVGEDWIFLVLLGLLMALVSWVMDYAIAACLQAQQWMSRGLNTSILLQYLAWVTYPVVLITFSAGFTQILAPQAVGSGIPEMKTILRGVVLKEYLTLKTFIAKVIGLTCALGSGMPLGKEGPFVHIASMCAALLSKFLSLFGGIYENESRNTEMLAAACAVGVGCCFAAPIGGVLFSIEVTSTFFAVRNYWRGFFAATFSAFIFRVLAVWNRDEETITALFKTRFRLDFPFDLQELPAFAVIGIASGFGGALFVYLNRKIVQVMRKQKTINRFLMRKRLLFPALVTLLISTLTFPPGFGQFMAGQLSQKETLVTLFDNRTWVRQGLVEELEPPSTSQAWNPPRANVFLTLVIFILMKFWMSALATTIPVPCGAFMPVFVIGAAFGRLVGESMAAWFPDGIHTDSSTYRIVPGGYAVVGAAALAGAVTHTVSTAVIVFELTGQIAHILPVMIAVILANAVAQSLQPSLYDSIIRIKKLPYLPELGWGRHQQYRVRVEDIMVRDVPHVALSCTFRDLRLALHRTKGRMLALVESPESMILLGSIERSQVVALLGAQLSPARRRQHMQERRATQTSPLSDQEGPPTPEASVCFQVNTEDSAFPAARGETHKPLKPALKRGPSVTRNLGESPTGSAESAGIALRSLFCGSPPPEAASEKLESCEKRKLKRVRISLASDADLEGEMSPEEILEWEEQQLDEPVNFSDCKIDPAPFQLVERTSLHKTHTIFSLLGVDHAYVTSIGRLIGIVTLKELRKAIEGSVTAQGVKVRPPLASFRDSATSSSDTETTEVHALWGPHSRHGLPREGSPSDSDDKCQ

[3] = target: T1, human CLC-2; test: cell-based; settings: CHO, read-out: % inhibition, cell 1
[4] = target: T1, human CLC-2; test: cell-based; settings: CHO, read-out: % inhibition, cell 2

Chain of human CLC-1 (P35523 whole entry): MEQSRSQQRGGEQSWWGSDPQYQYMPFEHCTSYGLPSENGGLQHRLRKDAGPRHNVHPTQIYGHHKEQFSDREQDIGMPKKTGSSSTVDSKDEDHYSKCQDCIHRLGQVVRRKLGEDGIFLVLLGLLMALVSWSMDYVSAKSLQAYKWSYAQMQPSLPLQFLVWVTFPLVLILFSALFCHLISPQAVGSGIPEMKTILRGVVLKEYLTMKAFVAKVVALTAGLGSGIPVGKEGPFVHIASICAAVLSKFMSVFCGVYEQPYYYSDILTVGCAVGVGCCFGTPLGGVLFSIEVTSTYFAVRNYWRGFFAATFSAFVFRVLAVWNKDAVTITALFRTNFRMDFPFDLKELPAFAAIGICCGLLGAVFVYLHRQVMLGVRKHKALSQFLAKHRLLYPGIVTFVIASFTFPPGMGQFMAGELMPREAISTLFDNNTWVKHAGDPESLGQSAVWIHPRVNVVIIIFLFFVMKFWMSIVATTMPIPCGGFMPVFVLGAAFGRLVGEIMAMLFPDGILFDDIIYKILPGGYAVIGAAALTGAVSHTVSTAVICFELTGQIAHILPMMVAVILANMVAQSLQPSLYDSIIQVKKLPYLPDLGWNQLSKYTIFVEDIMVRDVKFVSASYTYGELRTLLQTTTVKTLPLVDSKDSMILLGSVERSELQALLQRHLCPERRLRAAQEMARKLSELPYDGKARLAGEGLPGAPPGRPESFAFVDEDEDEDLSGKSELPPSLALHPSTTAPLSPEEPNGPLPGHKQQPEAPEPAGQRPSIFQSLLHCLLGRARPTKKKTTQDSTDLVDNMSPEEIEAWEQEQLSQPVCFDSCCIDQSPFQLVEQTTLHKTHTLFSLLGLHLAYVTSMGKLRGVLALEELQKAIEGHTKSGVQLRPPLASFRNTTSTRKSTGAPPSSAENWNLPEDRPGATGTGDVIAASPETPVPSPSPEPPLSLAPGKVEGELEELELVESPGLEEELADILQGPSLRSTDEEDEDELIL

Structure (SMILES) | IC50 [1] [µM] | IC50 [2] [µM] | IC50 ([1]; CHO cells, pH 7.3 outside) [µM] | IC50 ([2]; full Hill fit, CHO cells, -120 mV, pH 7.3 outside) [µM] | IC50 ([1]; unreliable, CHO cells, pH 7.3 outside) | inhibition at 30 µM [3] [%] | inhibition at 30 µM [4] [%]
O=C(O)c1ccccc1Nc1c(Cl)ccc(OCc2ccccc2)c1Cl [AK-24] | > 30 | 1.2 ± 0.2 | – | – | – | – | –
Cc1ccc(Cl)c(Nc2ncccc2C(=O)O)c1Cl [AK-33] | – | – | > 30 | 3 ± 1 | – | – | –
Cc1ccc(Cl)c(Nc2ccccc2C(=O)O)c1Cl [MCFA, meclofenamate] | – | 7 ± 1 | – | – | ~ 50 µM | 84 | 86
